Data from the supplement of paper PMC7214452.
Counter-ions that a name gives are not always drawn.

Columns and labels:
Assay in all cases: normalized area under the dose-response curve (viability relative to DMSO control) (fraction); higher = less sensitive (more viable cells)
Settings in all cases: exposure time not given
My-La (cancer type: TCL) = system: My-La (cancer type: TCL)
Method: (§1)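 25 myeloma and 15 non-Hodgkin lymphoma cell lines were exposed to each of 76 drugs as 7-point log dilutions (0.01 nM–10 µM) in duplicate. Viability was read with CellTiter-Glo and normalised to DMSO (0.1%) and staurosporine (10 µM) plate controls. Normalised AUC was calculated by the trapezoidal method relative to the negative control.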

[1] = system: JVM2 (cancer type: Mantle)
Method: as §1

[2] = system: OCI-LY19 (cancer type: DLBCL)
Method: as §1

[3] = system: Mino (cancer type: Mantle)
Method: as §1

XG2 (cancer type: MM) = system: XG2 (cancer type: MM)
Method: as §1

MM1.R (cancer type: MM) = system: MM1.R (cancer type: MM)
Method: as §1

[4] = system: SR-786 (cancer type: TCL)
Method: as §1

KMS26 (cancer type: MM) = system: KMS26 (cancer type: MM)
Method: as §1

[5] = system: RPMI 8226 (cancer type: MM)
Method: as §1

JJN3 (cancer type: MM) = system: JJN3 (cancer type: MM)
Method: as §1

SKMM2 (cancer type: MM) = system: SKMM2 (cancer type: MM)
Method: as §1

LP1 (cancer type: MM) = system: LP1 (cancer type: MM)
Method: as §1

[6] = system: HuT 78 (cancer type: TCL)
Method: as §1

[7] = system: OCI-LY3 (cancer type: DLBCL)
Method: as §1

[8] = system: NCI-H929 (cancer type: MM)
Method: as §1

[9] = system: OCI-MY5 (cancer type: MM)
Method: as §1

[10] = system: OCI-LY1 (cancer type: DLBCL)
Method: as §1

Se-Ax (cancer type: TCL) = system: Se-Ax (cancer type: TCL)
Method: as §1

MM1.S (cancer type: MM) = system: MM1.S (cancer type: MM)
Method: as §1

L363 (cancer type: MM) = system: L363 (cancer type: MM)
Method: as §1

[11] = system: SU-DHL2 (cancer type: DLBCL)
Method: as §1

KMS34 (cancer type: MM) = system: KMS34 (cancer type: MM)
Method: as §1

AMO1 (cancer type: MM) = system: AMO1 (cancer type: MM)
Method: as §1

[12] = system: KMS28BM (cancer type: MM)
Method: as §1

EJM (cancer type: MM) = system: EJM (cancer type: MM)
Method: as §1

[13] = system: OCI-MY5/Vec (cancer type: MM)
Method: as §1

[14] = system: Granta-519 (cancer type: Mantle)
Method: as §1

[15] = system: SU-DHL6 (cancer type: DLBCL)
Method: as §1

OPM2 (cancer type: MM) = system: OPM2 (cancer type: MM)
Method: as §1

[16] = system: KMS28PE (cancer type: MM)
Method: as §1

[17] = system: OCI-MY5/CRBN (cancer type: MM)
Method: as §1

U266 (cancer type: MM) = system: U266 (cancer type: MM)
Method: as §1

[18] = system: SU-DHL1 (cancer type: TCL)
Method: as §1

[19] = system: JeKo-1 (cancer type: Mantle)
Method: as §1

FR4 (cancer type: MM) = system: FR4 (cancer type: MM)
Method: as §1

[20] = system: KMS12PE (cancer type: MM)
Method: as §1

[21] = system: OCI-MY7 (cancer type: MM)
Method: as §1

KMS11 (cancer type: MM) = system: KMS11 (cancer type: MM)
Method: as §1

KMS18 (cancer type: MM) = system: KMS18 (cancer type: MM)
Method: as §1

[22] = system: Karpas-299 (cancer type: TCL)
Method: as §1

## Cc1ccc(F)c(NC(=O)Nc2ccc(-c3cccc4[nH]nc(N)c34)cc2)c1 [Linifanib]
My-La (cancer type: TCL)
  normalized area under the dose-response curve: 0.852
[1]
  normalized area under the dose-response curve: 0.25
[2]
  normalized area under the dose-response curve: 0.987
[3]
  normalized area under the dose-response curve: 0.735
XG2 (cancer type: MM)
  normalized area under the dose-response curve: 0.547
MM1.R (cancer type: MM)
  normalized area under the dose-response curve: 0.58
[4]
  normalized area under the dose-response curve: 0.721
KMS26 (cancer type: MM)
  normalized area under the dose-response curve: 0.709
[5]
  normalized area under the dose-response curve: 0.165
JJN3 (cancer type: MM)
  normalized area under the dose-response curve: 0.603
SKMM2 (cancer type: MM)
  normalized area under the dose-response curve: 0.667
LP1 (cancer type: MM)
  normalized area under the dose-response curve: 0.348
[6]
  normalized area under the dose-response curve: 0.63
[7]
  normalized area under the dose-response curve: 0.983
[8]
  normalized area under the dose-response curve: 0.59
[9]
  normalized area under the dose-response curve: 0.468
[10]
  normalized area under the dose-response curve: 0.995
Se-Ax (cancer type: TCL)
  normalized area under the dose-response curve: 0.627
MM1.S (cancer type: MM)
  normalized area under the dose-response curve: 0.55
L363 (cancer type: MM)
  normalized area under the dose-response curve: 0.605
[11]
  normalized area under the dose-response curve: 0.981
KMS34 (cancer type: MM)
  normalized area under the dose-response curve: 0.33
AMO1 (cancer type: MM)
  normalized area under the dose-response curve: 0.567
[12]
  normalized area under the dose-response curve: 0.646
EJM (cancer type: MM)
  normalized area under the dose-response curve: 0.526
[13]
  normalized area under the dose-response curve: 0.57
[14]
  normalized area under the dose-response curve: 0.861
[15]
  normalized area under the dose-response curve: 0.955
OPM2 (cancer type: MM)
  normalized area under the dose-response curve: 0.587
[16]
  normalized area under the dose-response curve: 0.722
[17]
  normalized area under the dose-response curve: 0.55
U266 (cancer type: MM)
  normalized area under the dose-response curve: 0.549
[18]
  normalized area under the dose-response curve: 0.519
[19]
  normalized area under the dose-response curve: 0.759
FR4 (cancer type: MM)
  normalized area under the dose-response curve: 0.441
[20]
  normalized area under the dose-response curve: 0.73
[21]
  normalized area under the dose-response curve: 0.5
KMS11 (cancer type: MM)
  normalized area under the dose-response curve: 0.65
KMS18 (cancer type: MM)
  normalized area under the dose-response curve: 0.56
[22]
  normalized area under the dose-response curve: 0.651

## N[C@@H](Cc1ccc(N(CCCl)CCCl)cc1)C(=O)O [Melphalan hydrochloride]
My-La (cancer type: TCL)
  normalized area under the dose-response curve: 0.892
[1]
  normalized area under the dose-response curve: 0.742
[2]
  normalized area under the dose-response curve: 1.01
[3]
  normalized area under the dose-response curve: 0.818
XG2 (cancer type: MM)
  normalized area under the dose-response curve: 0.776
MM1.R (cancer type: MM)
  normalized area under the dose-response curve: 0.8
[4]
  normalized area under the dose-response curve: 0.973
KMS26 (cancer type: MM)
  normalized area under the dose-response curve: 0.791
[5]
  normalized area under the dose-response curve: 0.897
JJN3 (cancer type: MM)
  normalized area under the dose-response curve: 0.874
SKMM2 (cancer type: MM)
  normalized area under the dose-response curve: 0.892
LP1 (cancer type: MM)
  normalized area under the dose-response curve: 0.85
[6]
  normalized area under the dose-response curve: 0.787
[7]
  normalized area under the dose-response curve: 0.858
[8]
  normalized area under the dose-response curve: 0.77
[9]
  normalized area under the dose-response curve: 0.643
[10]
  normalized area under the dose-response curve: 0.94
Se-Ax (cancer type: TCL)
  normalized area under the dose-response curve: 0.778
MM1.S (cancer type: MM)
  normalized area under the dose-response curve: 0.79
L363 (cancer type: MM)
  normalized area under the dose-response curve: 0.73
[11]
  normalized area under the dose-response curve: 0.936
KMS34 (cancer type: MM)
  normalized area under the dose-response curve: 0.573
AMO1 (cancer type: MM)
  normalized area under the dose-response curve: 0.722
[12]
  normalized area under the dose-response curve: 0.95
EJM (cancer type: MM)
  normalized area under the dose-response curve: 0.685
[13]
  normalized area under the dose-response curve: 0.936
[14]
  normalized area under the dose-response curve: 0.798
[15]
  normalized area under the dose-response curve: 0.905
OPM2 (cancer type: MM)
  normalized area under the dose-response curve: 0.896
[16]
  normalized area under the dose-response curve: 0.758
[17]
  normalized area under the dose-response curve: 0.926
U266 (cancer type: MM)
  normalized area under the dose-response curve: 0.885
[18]
  normalized area under the dose-response curve: 0.41
[19]
  normalized area under the dose-response curve: 0.788
FR4 (cancer type: MM)
  normalized area under the dose-response curve: 0.919
[20]
  normalized area under the dose-response curve: 0.86
[21]
  normalized area under the dose-response curve: 0.73
KMS11 (cancer type: MM)
  normalized area under the dose-response curve: 0.826
KMS18 (cancer type: MM)
  normalized area under the dose-response curve: 0.842
[22]
  normalized area under the dose-response curve: 0.907

## COc1nc(N)nc2c1ncn2[C@@H]1O[C@H](CO)[C@@H](O)[C@@H]1O [Nelarabine]
My-La (cancer type: TCL)
  normalized area under the dose-response curve: 0.929
[1]
  normalized area under the dose-response curve: 0.883
[2]
  normalized area under the dose-response curve: 0.993
[3]
  normalized area under the dose-response curve: 0.978
XG2 (cancer type: MM)
  normalized area under the dose-response curve: 0.935
MM1.R (cancer type: MM)
  normalized area under the dose-response curve: 0.85
[4]
  normalized area under the dose-response curve: 0.902
KMS26 (cancer type: MM)
  normalized area under the dose-response curve: 0.861
[5]
  normalized area under the dose-response curve: 0.915
JJN3 (cancer type: MM)
  normalized area under the dose-response curve: 0.987
SKMM2 (cancer type: MM)
  normalized area under the dose-response curve: 0.96
LP1 (cancer type: MM)
  normalized area under the dose-response curve: 0.94
[6]
  normalized area under the dose-response curve: 0.913
[7]
  normalized area under the dose-response curve: 1.01
[8]
  normalized area under the dose-response curve: 0.95
[9]
  normalized area under the dose-response curve: 0.98
[10]
  normalized area under the dose-response curve: 0.996
Se-Ax (cancer type: TCL)
  normalized area under the dose-response curve: 0.779
MM1.S (cancer type: MM)
  normalized area under the dose-response curve: 0.91
L363 (cancer type: MM)
  normalized area under the dose-response curve: 0.92
[11]
  normalized area under the dose-response curve: 0.937
KMS34 (cancer type: MM)
  normalized area under the dose-response curve: 0.88
AMO1 (cancer type: MM)
  normalized area under the dose-response curve: 0.948
[12]
  normalized area under the dose-response curve: 0.924
EJM (cancer type: MM)
  normalized area under the dose-response curve: 0.889
[13]
  normalized area under the dose-response curve: 0.946
[14]
  normalized area under the dose-response curve: 0.99
[15]
  normalized area under the dose-response curve: 0.989
OPM2 (cancer type: MM)
  normalized area under the dose-response curve: 0.978
[16]
  normalized area under the dose-response curve: 0.951
[17]
  normalized area under the dose-response curve: 0.928
U266 (cancer type: MM)
  normalized area under the dose-response curve: 0.985
[18]
  normalized area under the dose-response curve: 0.858
[19]
  normalized area under the dose-response curve: 0.921
FR4 (cancer type: MM)
  normalized area under the dose-response curve: 1.01
[20]
  normalized area under the dose-response curve: 0.92
[21]
  normalized area under the dose-response curve: 0.94
KMS11 (cancer type: MM)
  normalized area under the dose-response curve: 0.992
KMS18 (cancer type: MM)
  normalized area under the dose-response curve: 0.973
[22]
  normalized area under the dose-response curve: 0.972

## Cc1cn(-c2cc(NC(=O)c3ccc(C)c(Nc4nccc(-c5cccnc5)n4)c3)cc(C(F)(F)F)c2)cn1 [Nilotinib]
My-La (cancer type: TCL)
  normalized area under the dose-response curve: 0.978
[1]
  normalized area under the dose-response curve: 0.741
[2]
  normalized area under the dose-response curve: 0.841
[3]
  normalized area under the dose-response curve: 0.942
XG2 (cancer type: MM)
  normalized area under the dose-response curve: 0.959
MM1.R (cancer type: MM)
  normalized area under the dose-response curve: 0.81
[4]
  normalized area under the dose-response curve: 0.929
KMS26 (cancer type: MM)
  normalized area under the dose-response curve: 0.948
[5]
  normalized area under the dose-response curve: 0.89
JJN3 (cancer type: MM)
  normalized area under the dose-response curve: 0.512
SKMM2 (cancer type: MM)
  normalized area under the dose-response curve: 0.889
LP1 (cancer type: MM)
  normalized area under the dose-response curve: 0.908
[6]
  normalized area under the dose-response curve: 0.944
[7]
  normalized area under the dose-response curve: 0.946
[8]
  normalized area under the dose-response curve: 0.86
[9]
  normalized area under the dose-response curve: 0.39
[10]
  normalized area under the dose-response curve: 0.948
Se-Ax (cancer type: TCL)
  normalized area under the dose-response curve: 0.798
MM1.S (cancer type: MM)
  normalized area under the dose-response curve: 0.78
L363 (cancer type: MM)
  normalized area under the dose-response curve: 0.634
[11]
  normalized area under the dose-response curve: 0.91
KMS34 (cancer type: MM)
  normalized area under the dose-response curve: 0.604
AMO1 (cancer type: MM)
  normalized area under the dose-response curve: 0.693
[12]
  normalized area under the dose-response curve: 0.871
EJM (cancer type: MM)
  normalized area under the dose-response curve: 0.904
[13]
  normalized area under the dose-response curve: 0.953
[14]
  normalized area under the dose-response curve: 0.953
[15]
  normalized area under the dose-response curve: 0.918
OPM2 (cancer type: MM)
  normalized area under the dose-response curve: 0.443
[16]
  normalized area under the dose-response curve: 0.695
[17]
  normalized area under the dose-response curve: 0.863
U266 (cancer type: MM)
  normalized area under the dose-response curve: 0.826
[18]
  normalized area under the dose-response curve: 0.851
[19]
  normalized area under the dose-response curve: 0.94
FR4 (cancer type: MM)
  normalized area under the dose-response curve: 0.838
[20]
  normalized area under the dose-response curve: 0.88
[21]
  normalized area under the dose-response curve: 0.88
KMS11 (cancer type: MM)
  normalized area under the dose-response curve: 0.736
KMS18 (cancer type: MM)
  normalized area under the dose-response curve: 0.865
[22]
  normalized area under the dose-response curve: 0.896
